Assay results: US4020076A, “Novel phosphoryloxy-thiazoles” (priority 1974, dated 1977)
Read-outs that look alike come from different tables or passages of the source.

Columns and labels:
Type in all cases: in vivo
[1] = test system: Drosophila melanogaster; assay: Vapor activity against Drosophila melanogaster; details: inhaled or nasal, read-out: percentage of mortality
Experimental: a. Activity against Drosophila melanogaster
This test measures the vapor activity of the compounds and the less than 48 hours old insects were placed in a Petri dish with a 10 cm diameter connected by a tergal screen to a crystallizer of the same diameter in which the test compound in acetone solution is placed. The said solution is evaporated after the insects have been placed and 3 tests with 25 insects were run for each concentration. The results are expressed in Table I as a percentage of mortality after 1, 2, 4 and 6 hours.

[2] = test system: Musca domestica larvae; assay: Contact-ingestion test against Musca domestica larvae; details: read-out: percent of mortality
Experimental: g. Activity against Musca domestica larvae
This contact-ingestion test consisted of placing 2 ml of an acetone solution of different concentrations of the test product on 1 g of bran placed in a watch glass and the solvent was evaporated. The treated bran was placed in a plastic dish and was admixed with 2 ml of milk. 20 3 to 4 day old larvae of Musca domestica were added to the bran and were held at 20° C and 30% relative humidity and 3 tests were conducted for each concentration.

[3] = test system: Ditylenchus Myceliophagus; assay: Acaricide activity, Ditylenchus Myceliophagus; details: 24 h, read-out: Percent of mortality after 24 hours
Experimental: In an apparatus containing 10 ml of an aqueous solution of the test product, 0.5 ml of water containing about 2000 acariens of Ditylenchus Myceliophagus were added thereto and the percent of mortality was determined by a binocular magnifying glass after 24 hours.

[4] = test system: Musca domestica; assay: Topical application activity against Musca domestica; details: read-out: percent of mortality
Experimental: d. Activity against Musca domestica
This topical application test consisted of placing a microliter of an acetone solution of the test product on the dorsal thorax of Musca domestica after having been put to sleep with ether. The insects were held at 20° C and 50% relative humidity and were fed milk and water.

[5] = test system: Sitophilus granarius; assay: Topical application test against Sitophilus granarius; details: read-out: percent mortality
Experimental: c. Test against Sitophilus granarius
This topical application test comprised preparing the test compounds in acetone solution at concentrations of 5000, 500 and 50 mg of the active compound per liter and 0.2 μl of the solutions were applied to the ventral thorax of 50 Sitophilus granarius for each concentration.

[6] = test system: Spodoptera littoralis; assay: Ingestion test against Spodoptera littoralis caterpillars; details: po, ingestion, read-out: percent of mortality
Experimental: e. Activity against Spodoptera littoralis
This test was effected with Spodoptera littoralis caterpillars 1 to 1.5 cm long and an average of 10 days old. In this ingestion test, 4 ml of an acetone solution of the test products was placed on lettuce rings with an 8 mm diameter which were placed in closed plastic dishes with a 5 cm diameter. 15 caterpillars were placed in each dish and were held at 20° C and 50% relative humidity and were fed when the insects had eaten the treated lettuce ring.

[7] = test system: Panagrellus silusiae; assay: Nematocidal activity against Panagrellus silusiae
Experimental: b. Activity against Panagrellus silusiae
30 nematodes were placed on a watch glass and three tests were run for each concentration. The 3 watch glasses for each treatment were placed in a Petri dish with a 15 cm diameter containing a film of water in a manner to retard evaporation of the solution to wet the nematodes. The concentration of the product was 125 mg of MA/L and 1 ml of toxic solution was placed on each watch glass containing the nematodes in 0.5 ml of water.

[8] = test system: Blattella germanica; assay: Topical application activity against Blattella germanica; details: 5000 ppm, read-out: percent of mortality
Experimental: b. Activity against Blattella germanica
This test was a topical application in which adult male Blattella germanica received 2 microliters of an acetone solution of the test products between the second and third pair of paws. After this treatment, the test insects were held in a dim light at 20° C and were fed. The results expressed as percent of mortality in Table II were read 24 and 48 hours and 5 days after the treatment.

[9] = test system: Meloidogynes spec; assay: Nematocidal activity against Meloidogynes spec (tomato root galls); details: 25 Kg/ha
Experimental: a. Activity against Meloidogynes spec
A volume of about 3 liters of dirt infested with Meloidogynes spec was placed in a plastic sack. Nematocidal treatments are considered effective to a depth of 30 cm, a volume of 3 liters of dirt corresponding to a surface area of 100 cm^ 2 or 10^-^6 ha (since 100 cm^ 2 × 30 cm = 3000 ml or 3 liters). Each volume of infested dirt received 100 ml of an aqueous suspension containing 0.250 g of the test product (corresponding to 250 Kg/ha) and the controls received only 100 ml of water. The plastic sacks containing the dirt were immediately sealed after the treatment and then agitated to obtain a good distribution of the product. Two weeks after the treatment, the sacks were opened and the dirt was used to plant 3 tomato plants of St. Pierre variety. The plants used were raised in the greenhouse with dirt sterilized with heat to obtain plants free of nematodes. Three plants were used for each test which was run 6 times for each treatment. Two months after planting the tomatoes were removed from the dirt and the efficacy was determined by counting the number of galls observed on the roots. A correlation between the population of Meloidogynes in the pot and the number of galls exists.

Work on `CCCCOc1nc(OP(=S)(OC)OC)c(C#N)s1` [Compound B, 2-n-butoxy-4-dimethoxythiophosphoryloxy-5-cyano-thiazole] yielded a mortality at 5 ppm ([1]; 1 H) of 0%, a mortality at 50 ppm ([1]; 1 H) of 77% and a mortality at 500 ppm ([1]; 1 H) of 100%. For the same compound, the mortality at 5 ppm ([1]; 4 H) was 100%, the mortality at 50 ppm ([1]; 4 H) was 100% and the mortality at 500 ppm ([1]; 4 H) was 100%. It also gave a mortality at 5 ppm ([1]; 6 H) of 100%, a mortality at 50 ppm ([1]; 6 H) of 100% and a mortality at 500 ppm ([1]; 6 H) of 100%. It also gave a mortality at 500 ppm ([2]; 48 H) of 88%, a mortality at 5000 ppm ([2]; 48 H) of 93% and a mortality at 500 ppm ([2]; 192 h, 8 Days) of 98%. The mortality at 5000 ppm ([2]; 192 h, 8 Days) was 98%, the mortality at 1 µg/mL ([3]; 0.001 g/l) was 43.3% and the mortality at 10 µg/mL ([3]; 0.010 g/l) was 95.9%. It also gave a mortality at 100 µg/mL ([3]; 0.1 g/l) of 98.5%, a mortality at 500 ppm ([4]; 1 H) of 96% and a mortality at 2500 ppm ([4]; 1 H) of 100%. For the same compound, the mortality at 5000 ppm ([4]; 1 H) was 100%, the mortality at 500 ppm ([4]; 24 H) was 100% and the mortality at 2500 ppm ([4]; 24 H) was 100%. For the same compound, the mortality at 5000 ppm ([4]; 24 H) was 100%, the mortality at 50 ppm ([5]; 4 H) was 0% and the mortality at 500 ppm ([5]; 4 H) was 96%. The mortality at 5000 ppm ([5]; 4 H) was 100%, the mortality at 50 ppm ([5]; 24 H) was 0% and the mortality at 500 ppm ([5]; 24 H) was 100%. The mortality at 5000 ppm ([5]; 24 H) was 100%, the mortality at 50 ppm ([5]; 120 h, 5 Days) was 0% and the mortality at 500 ppm ([5]; 120 h, 5 Days) was 100%. For the same compound, the mortality at 5000 ppm ([5]; 120 h, 5 Days) was 100%, the mortality at 125 ppm ([6]; 1 H) was 0% and the mortality at 250 ppm ([6]; 1 H) was 0%. For the same compound, the mortality at 500 ppm ([6]; 1 H) was 0%, the mortality at 125 ppm ([6]; 24 H) was 50% and the mortality at 250 ppm ([6]; 24 H) was 100%. For the same compound, the mortality at 500 ppm ([6]; 24 H) was 100%, the mortality at 125 ppm ([6]; 48 H) was 90% and the mortality at 250 ppm ([6]; 48 H) was 100%. It also gave a mortality at 500 ppm ([6]; 48 H) of 100%, a mortality at 1 µg/mL ([7]; 0.001 g/l, 24 hours) of 89.3% and a mortality at 10 µg/mL ([7]; 0.01 g/l, 24 hours) of 100%. The mortality at 100 µg/mL ([7]; 24 h, read-out: % of mortality) was 100%.

In the case of `CCOc1nc(OP(=O)(OC)OC)c(C#N)s1` [Compound D, 2-ethoxy-4-dimethoxyphosphoryloxy-5-cyano-thiazole], the mortality at 500 ppm ([1]; 2 H) is reported as 100%, the mortality at 500 ppm ([1]; 6 H) is reported as 100% and the mortality at 5000 ppm ([2]; 192 h, 8 Days) is reported as 90%. For the same compound, the mortality at 5000 ppm ([4]; 24 H) was 64%, the mortality at 5000 ppm ([8]; 24 H) was 100% and the mortality at 5000 ppm ([8]; 48 H) was 100%. The mortality at 5000 ppm ([8]; 120 h, 5 Days) was 100%, the mortality at 5000 ppm ([5]; 4 H) was 100% and the mortality at 5000 ppm ([5]; 24 H) was 100%. For the same compound, the mortality at 5000 ppm ([5]; 120 h, 5 Days) was 100%, the “Relative efficacity in % as compound to controls” value [9] was 52.8% and the “Number of galls per foot” value ([9]; control 44.4) was 31.25. The “Total number of galls” value ([9]; control 222) was 125.
